Data reported in patent publication US20160251403A1, “PEPTIDE COMBINATIONS AND USES THEREOF IN TREATING DUST MITE ALLERGY” (ALK-ABELLO A/S, priority 2013, published 2016).
No end group written: not given here.

Assays:
[1] = molecular target: DRB1_0701 (Homo sapiens, UniProt P01903+P01911, A100R/A102G/A103Q/D57E/D86V/E43K/F76Y/K127E/L162R/M171V/P40G/Q125H/Q99D/R33Q/R42Y/R54Q/S133A/S66F/T210M/V115G/Y107V/Y59L/Y89S); experiment: Competitive MHC class II binding assay, DRB1_0701;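 also: displacement of a radiolabeled reference peptide from purified HLA class II protein, with complex-bound radioactivity counted after 2–4 days of incubation and six concentrations spanning a 100,000-fold range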
[2] = molecular target: DRB1_1302 (Homo sapiens, UniProt P01903+P01911, A100E/A169T/K41T/L162R/M171V/P40S/Q125H/Q178H/Q39Y/Q99D/R42S/S66N/T262R/V115G/W38E/Y61H); experiment: Competitive MHC class II binding assay, DRB1_1302;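 also: purified HLA class II protein incubated two to four days with a radiolabeled reference binder and test peptide at six concentrations over a 100,000-fold range, complex-bound radioactivity counted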
[3] = molecular target: DRB1_0901 (Homo sapiens, UniProt P01903+P01911, A100R/A103E/D57H/D86V/F55Y/F60I/F76Y/I96F/K127E/L162R/M171V/P40D/Q125H/Q99R/R33Q/R42F/S133A/S66N/T210M/V115G/W38K/Y107V/Y59G/Y89S); experiment: Competitive MHC class II binding assay, DRB1_0901;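 also: displacement of a radiolabeled probe peptide from purified HLA class II protein, bound counts read after two to four days incubation, six concentrations spanning 100,000-fold, unlabeled probe as reference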
[4] = molecular target: DRB1_0101 (Homo sapiens, UniProt P01903+P01911, A100R/D57E/F55L/F60I/F76Y/I96L/L162R/M171V/P40L/Q125E/R42F/V115G/Y59C); experiment: Competitive MHC class II binding assay, DRB1_0101;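 also: competition against a radiolabeled probe peptide (0.1–1 nM) for purified HLA class II protein over 2–4 days, bound counts read after antibody capture, six competitor levels across 100,000-fold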
[5] = molecular target: DRB4_0101 (Homo sapiens, UniProt P01903+P13762, G164S); experiment: Competitive MHC class II binding assay, DRB4_0101
[6] = molecular target: DQA10501-DQB10301 (Homo sapiens, UniProt P01909+P01920); experiment: Competitive MHC class II binding assay, DQA10501-DQB10301
[7] = molecular target: DRB1_1501 (Homo sapiens, UniProt P01903+P01911); experiment: Competitive MHC class II binding assay, DRB1_1501
[8] = molecular target: DQA10102-DQB10602; experiment: Competitive MHC class II binding assay, DQA10102-DQB10602; details: read-out: HLA-DQA10102-DQB10602; positive binding at cutoff 1000 nM
[9] = molecular target: DRB1_0802 (Homo sapiens, UniProt P01903+P01911, A100R/A103L/A169T/F76Y/H45Y/I96F/K41T/L162R/M171V/P40S/Q125H/Q178H/Q39Y/Q99D/R218S/R42G/S66Y/V115G/W38E); experiment: Competitive MHC class II binding assay, DRB1_0802
[10] = molecular target: DRB1_0401 (Homo sapiens, UniProt P01903+P01911, A100K/A169T/F76Y/I96L/K127E/L162R/M171V/N62H/P40V/Q125Y/R42H/S133A/S149N/S66Y/V115G/V209L/W38E); experiment: Competitive MHC class II binding assay, DRB1_0401
[11] = molecular target: DRB1_0405 (Homo sapiens, UniProt P01903+P01911, A100R/A169T/D86S/F76Y/I96L/K127E/L162R/M171V/N62H/P40V/Q125Y/R42H/S133A/S149N/S66Y/V115G/V209L/W38E); experiment: Competitive MHC class II binding assay, DRB1_0405
[12] = molecular target: DRB3_0101 (Homo sapiens, UniProt P01903+P79483); experiment: Competitive MHC class II binding assay, DRB3_0101
[13] = Solubility of peptides in aqueous solutions at different pH (visual inspection, OD, HPLC); assay type: physicochemical; details: for Solubility at pH 7: evaluated by visual inspection
From the text: This example describes modifications of parent peptides to improve the aqueous solubility, in particular to increase the solubility in an aqueous solution having pH in a physiologically acceptable range, e.g. from 6 to 8. Solubility is closely related to the ratio between hydrophilic and hydrophobic amino acid residues and the net charge state of the peptide. Peptides have zero net charge at pH=pI, and would be expected to show the lowest solubility at this pH. […] The solubility of these peptides was increased at pH values outside the physiological range (data not shown).
Peptides were tested for their ability to dissolve in aqueous solutions at different pH values. In short, each of the peptides were dissolved in water (pH about 5-6), hydrochloride solution at pH 2 (10 mM HCl), acetate buffer with pH 5 (20 mM acetate and 140 mM sodium chloride), phosphate buffer with pH 7 (20 mM phosphate and 140 mM sodium chloride) or bistrispropate buffer with pH 9 (20 mM bitrispropane and 140 mM sodium chloride, respectively, to produce a final molar concentration of the peptide of about 0.25 mM or 1 mM. Optionally, about 20% DMSO may be part of the solution. For comparison reasons, peptides were also dissolved in acetonitrile or DMSO. The solutions were inspected visually before and after centrifugation for turbidity, presence of particles/aggregates. In addition, presence of turbidity/particles/aggregates were detected by optical density (OD), but might also be detected by size-exclusion chromatography. Sub-visual particles may also be detected by dynamic light scattering (DLS) analysis. The solubility and stability of each peptide were also investigated using HPLC, e.g. RP-HPLC. For example, each of the solutions were injected onto the HPLC and the peak height or peak area of each of the peptides were compared to the corresponding peptide of a chromatogram of peptides dissolved in acetonitrile or DMSO—as peptides were assumed to be fully dissolved and stable in these solvents.

[14] = molecular target: DRB1_1101 (Homo sapiens, UniProt P01903+P01911, A100R/A169T/A87E/I96F/K41T/L162R/M171V/P40S/Q125H/Q178H/Q39Y/Q99D/R42S/S66Y/T262R/V115G/W38E); experiment: Competitive MHC class II binding assay, DRB1_1101

CC[C@H](C)[C@H](NC(=O)[C@@H](NC(=O)[C@@H](N)CO)[C@@H](C)CC)C(=O)N[C@@H](Cc1c[nH]cn1)C(=O)N[C@@H](CCCNC(=N)N)C(=O)NCC(=O)N[C@@H](CCCCN)C(=O)N1CCC[C@H]1C(=O)N[C@@H](Cc1ccccc1)C(=O)N[C@@H](CCC(N)=O)C(=O)N[C@@H](CC(C)C)C(=O)N[C@@H](CCC(=O)O)C(=O)N[C@@H](C)C(=O)O [pep-002]
IC50 [1]: < 1000 nM
IC50 [2]: < 1000 nM
IC50 [3]: < 1000 nM
IC50 [4]: < 1000 nM
IC50 [5]: < 1000 nM
IC50 [6]: < 1000 nM
IC50 [7]: < 1000 nM

CC[C@H](C)[C@H](NC(=O)CNC(=O)[C@@H](N)CCCNC(=N)N)C(=O)N[C@@H](CCC(=O)O)C(=O)N[C@@H](Cc1ccc(O)cc1)C(=O)N[C@H](C(=O)N[C@@H](CCC(N)=O)C(=O)N[C@@H](Cc1c[nH]cn1)C(=O)N[C@@H](CC(N)=O)C(=O)NCC(=O)N[C@H](C(=O)N[C@H](C(=O)N[C@@H](CCC(N)=O)C(=O)N[C@@H](CCC(=O)O)C(=O)N[C@@H](CO)C(=O)O)C(C)C)C(C)C)[C@@H](C)CC [pep-025]
IC50 [8]: < 1000 nM

CC[C@H](C)[C@H](NC(=O)[C@H](CO)NC(=O)[C@@H]1CCCN1C(=O)[C@H](CCC(=O)O)NC(=O)[C@H](CO)NC(=O)CNC(=O)[C@H](Cc1c[nH]cn1)NC(=O)[C@H](CO)NC(=O)CN)C(=O)N[C@H](C(=O)N[C@@H](Cc1c[nH]cn1)C(=O)N[C@@H](CCCNC(=N)N)C(=O)NCC(=O)N[C@@H](CCCCN)C(=O)N1CCC[C@H]1C(=O)N[C@@H](Cc1ccccc1)C(=O)N[C@@H](CCC(N)=O)C(=O)N[C@@H](CC(C)C)C(=O)N[C@@H](CCC(=O)O)C(=O)N[C@@H](C)C(=O)O)[C@@H](C)CC [pep-090]
IC50 [1]: < 1000 nM
IC50 [2]: < 1000 nM
IC50 [3]: < 1000 nM
IC50 [4]: < 1000 nM
IC50 [5]: < 1000 nM
IC50 [6]: < 1000 nM
IC50 [7]: < 1000 nM
IC50 [8]: < 1000 nM

ESVKYVQSNGGAI [HDM201, reference compound]
IC50 [9]: < 1000 nM
IC50 [1]: < 1000 nM
IC50 [10]: < 1000 nM
IC50 [2]: < 1000 nM
IC50 [3]: < 1000 nM
IC50 [4]: < 1000 nM
IC50 [5]: < 1000 nM
IC50 [11]: < 1000 nM
IC50 [12]: < 1000 nM
IC50 [7]: < 1000 nM

GSHGSDPSIIHRGKPFTLEA [pep-102]
IC50 [1]: < 1000 nM
IC50 [3]: < 1000 nM
IC50 [4]: < 1000 nM
IC50 [5]: < 1000 nM
IC50 [6]: < 1000 nM
IC50 [7]: < 1000 nM
IC50 [8]: < 1000 nM

HRGKPFQLEAVFEANQNTKT-NH2 [pep-151]
Solubility at pH 7 ([13]; Table 11c): Clear

KIREALAQTHSAIAVIIGIKDLDA-NH2 [pep-150]
Solubility at pH 7 ([13]; Table 11c): Clear

LVGDNGVLASAIATHAKIRD-NH2 [pep-149]
Solubility at pH 7 ([13]; Table 11c): Clear

NHEIKKVLVPGSHGSEPSII [pep-089]
IC50 [9]: < 1000 nM
IC50 [5]: < 1000 nM

RGIEYIQQNGVVEERSYPYVAR [pep-134]
Solubility at pH 7 ([13]; Table 11a): Clear

RGLKQMKRVGDANV [HDM35A, reference compound]
IC50 [9]: < 1000 nM
IC50 [14]: < 1000 nM
IC50 [4]: < 1000 nM

RHAVNIVGYSNAQGVDYWIVR [Peptide 136]
Solubility at pH 7 (visual inspection) [13]: Slight turbid

RHAVNIVGYSNAQGVDYWIVRR [Peptide 137]
Solubility at pH 7 (visual inspection) [13]: Clear
